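1) Cells in 96-well plates. 2) Compound, 48 h, 5 concentrations. 3) Linear interpolation between surrounding doses. 4) Unreached endpoint = highest concentration. GI50 marks 50% less growth.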 Activity calls are given as the source filed them. No stated cut-off is given here; in the data, active = GI50 up to about 1.1 µM and inactive = higher.
How the values were obtained:
Assay in all cases: inhibition of tumour cell growth, NCI panel, 48 h
CAKI-1 = test system: CAKI-1
PC-3 = test system: PC-3
CCRF-CEM = test system: CCRF-CEM
NCI-H522 = test system: NCI-H522
BT-549 = test system: BT-549
HCT-15 = test system: HCT-15
DU-145 = test system: DU-145
HOP-92 = test system: HOP-92
SF-539 = test system: SF-539
NCI/ADR-RES = test system: NCI/ADR-RES
SW-620 = test system: SW-620
Hs-578T = test system: Hs-578T
SNB-19 = test system: SNB-19
HT-29 = test system: HT-29

SMILES	GI50 (CAKI-1)	GI50 (PC-3)	GI50 (CCRF-CEM)	GI50 (NCI-H522)	GI50 (BT-549)	GI50 (HCT-15)	GI50 (DU-145)	GI50 (HOP-92)	GI50 (SF-539)	GI50 (NCI/ADR-RES)	GI50 (SW-620)	GI50 (Hs-578T)	GI50 (SNB-19)	GI50 (HT-29)
COC(=O)C(=O)Nc1cc2c3c(c1)Oc1cccc4c1C3(C)c1c(cccc1O2)O4	> 72.4 µM (inactive)	97.1 µM (inactive)	1.26 µM (inactive)	> 86.3 µM (inactive)	> 100 µM (inactive)	97.5 µM	> 44.7 µM (inactive)	72.6 µM (inactive)	33 µM (inactive)	6.56 µM (inactive)	> 100 µM (inactive)	> 83.4 µM (inactive)	> 100 µM (inactive)	
COc1ccc(C(SCCO)(c2ccccc2)c2ccc(OC)cc2)cc1	21 µM (inactive)	14.5 µM (inactive)	12.6 µM (inactive)	10.8 µM (inactive)	19.5 µM (inactive)	13.5 µM	15.5 µM (inactive)	14.6 µM (inactive)	14.7 µM (inactive)	15.9 µM (inactive)	15.3 µM (inactive)	11.1 µM (inactive)	8.26 µM (inactive)	13.9 µM (inactive)
CO[C@H]1C[C@H](O[C@H]2CC[C@@]3(C)[C@H](CC[C@@H]4[C@@H]3CC[C@]3(C)[C@@H](C5=CC(=O)OC5)CC[C@]43O)C2)O[C@H](C)[C@H]1O	< 0.01 µM (active)	< 0.01 µM (active)	< 0.01 µM (active)	< 0.01 µM (active)	< 0.01 µM (active)	< 0.01 µM	< 0.01 µM (active)	< 0.01 µM (active)	< 0.01 µM (active)	< 0.01 µM (active)	< 0.01 µM (active)	< 0.01 µM (active)	0.0158 µM (active)	< 0.01 µM (active)
COc1ccc(/C=C/c2cc(O)cc(OC3OC(CO)C(O)C(O)C3O)c2)cc1O (stereo not given)	> 100 µM (inactive)	49.2 µM (inactive)	82.4 µM (inactive)	44 µM (inactive)	> 100 µM (inactive)	6.01 µM	37.8 µM (inactive)	> 100 µM (inactive)	57.1 µM (inactive)	94 µM (inactive)	> 100 µM (inactive)	> 100 µM (inactive)	> 100 µM (inactive)	> 100 µM (inactive)
O=C1/C(=C\c2cccc(Oc3ccccc3)c2)SC(c2ccccc2)N1c1cc(Cl)ccc1Cl (stereo not given)	69.2 µM (inactive)	52.4 µM (inactive)	0.0356 µM (active)	21 µM (inactive)	36.8 µM (inactive)	35.2 µM	36 µM (inactive)	17.7 µM (inactive)	24.3 µM (inactive)	42.6 µM (inactive)	19 µM (inactive)	24.4 µM (inactive)	43.4 µM (inactive)	30.8 µM (inactive)
CC(C)(C)O/N=C/c1cc(NC(=S)c2ccsc2)ccc1Cl	16.6 µM (inactive)	13 µM (inactive)	10.7 µM (inactive)	13.3 µM (inactive)	13.9 µM (inactive)	14.6 µM	5.37 µM (inactive)	19.1 µM (inactive)	18 µM (inactive)	11.8 µM (inactive)	17.2 µM (inactive)	23.3 µM (inactive)		13.3 µM (inactive)
CSC1(SC2=NCCN2)SC2(NCCN2)S1	13.6 µM (inactive)	18.5 µM (inactive)	1.21 µM (inactive)	11.8 µM (inactive)	21.4 µM (inactive)	17.7 µM	14.8 µM (inactive)	13.5 µM (inactive)	16.7 µM (inactive)	31.8 µM (inactive)	9.04 µM (inactive)	24.3 µM (inactive)	20.3 µM (inactive)	18.7 µM (inactive)
CN(C)c1ccc(/C=C2\Oc3ccccc3C2=O)cc1	> 100 µM (inactive)	> 100 µM (inactive)	> 100 µM (inactive)	90.4 µM (inactive)	> 100 µM (inactive)	> 100 µM	> 100 µM (inactive)		> 100 µM (inactive)	68.5 µM (inactive)	> 100 µM (inactive)	22.5 µM (inactive)	> 100 µM (inactive)	> 100 µM (inactive)
Cc1nnc2nc(-c3ccc(Cl)cc3Cl)cc(-c3ccc(Cl)cc3)n12	66.5 µM (inactive)	57.8 µM (inactive)	> 100 µM (inactive)		> 100 µM (inactive)	> 100 µM	> 100 µM (inactive)	1.47 µM (inactive)	> 100 µM (inactive)	87.5 µM (inactive)	> 100 µM (inactive)	> 100 µM (inactive)	> 100 µM (inactive)	20.5 µM (inactive)
CC(=O)OC1C(O)COC(O[C@H]2CC[C@]34C[C@]35CC[C@]3(C)C([C@@]6(C)CC[C@@H](C(C)(C)O)O6)[C@@H](O)C[C@@]3(C)C5C[C@H](OC3OCC(O)C(O)C3O)[C@H]4C2(C)C)C1OC1OCC(O)C(O)C1O (stereo not given in full)	> 100 µM (inactive)	> 100 µM (inactive)		> 100 µM (inactive)	> 100 µM (inactive)	> 100 µM	> 100 µM (inactive)	> 100 µM (inactive)	> 100 µM (inactive)	> 100 µM (inactive)	> 100 µM (inactive)	> 100 µM (inactive)	> 100 µM (inactive)	> 100 µM (inactive)

Source: ChEMBL document CHEMBL1201862, “PubChem BioAssay data set” (2004)
